According to patent US9873680B2 (Gilead Sciences, Inc., priority 2014, dated 2018):

Legend:
[1] = Test B: Cytotoxicity Assay; type: cell-based; settings: human, uninfected MT-4 cells, CellTiter-Glo
Procedure: Test B: Cytotoxicity Assay Compound cytotoxicity and the corresponding CC50 values was determined using the same protocol as described in the antiviral assay (Test A) except that uninfected cells were used.

HIV-IIIb = test: Test A: Antiviral Assay in MT4 Cells; type: cell-based, HIV-1; settings: Human immunodeficiency virus 1, MT4, 120 h; 0.2 μM drug concentration; MT-4 cells infected with HIV-IIIb, 5 days; values normalized to 100%; average over time; read-out: % inhibition at 0.2 μM (percent inhibition of virus-induced cell killing)
Method in brief: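 Readout was CellTiter-Glo luminescence after 10 min room-temperature lysis, taken 5 days after plating at 37 °C. The 2000 MT-4 cells per well, mixed 1 h beforehand with HIV-IIIb (m.o.i. 0.003), went straight onto the diluted compound.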

With `Cn1nc(NS(C)(=O)=O)c2c(Cl)ccc(-c3ccc(C#CC4(O)CCOCC4)nc3[C@H](Cc3cc(F)cc(F)c3)NC(=O)Cn3nc(C(F)F)c4c3C(F)(F)[C@@H]3C[C@H]43)c21` [Compound 40, N—((S)-1-(3-(4-chloro-1-methyl-3-(methylsulfonamido)-1H-indazol-7-yl)-6-((4-hydroxytetrahydro-2H-pyran-4-yl)ethynyl)pyridin-2-yl)-2-(3,5-difluorophenyl)ethyl)-2-((3bS,4aR)-3-(difluoromethyl)-5,5-difluoro-3b,4,4a,5-tetrahydro-1H-cyclopropa[3,4]cyclopenta[1,2-c]pyrazol-1-yl)acetamide] as the molecule, how does the CC50 at 5 days [1] read?
The CC50 at 5 days was 17 µM.

And the inhibition at 0.2 µM (HIV-IIIb)?
Its inhibition at 0.2 µM is 96%.

What does the source list for `CN1CCN(C(C)(C)C#Cc2ccc(-c3ccc(Cl)c4c(NS(C)(=O)=O)nn(C)c34)c([C@H](Cc3cc(F)cc(F)c3)NC(=O)Cn3nc(C(F)(F)F)c4c3C(F)(F)[C@@H]3C[C@H]43)n2)CC1` [Compound 41, N—((S)-1-(3-(4-chloro-1-methyl-3-(methylsulfonamido)-1H-indazol-7-yl)-6-(3-methyl-3-(4-methylpiperazin-1-yl)but-1-yn-1-yl)pyridin-2-yl)-2-(3,5-difluorophenyl)ethyl)-2-((3bS,4aR)-5,5-difluoro-3-(trifluoromethyl)-3b,4,4a,5-tetrahydro-1H-cyclopropa[3,4]cyclopenta[1,2-c]pyrazol-1-yl)acetamide]?
CC50 at 5 days [1]: 2.08 µM; inhibition at 0.2 µM (HIV-IIIb): 98%

For `CN1CC(NC(C)(C)C#Cc2ccc(-c3ccc(Cl)c4c(NS(C)(=O)=O)nn(C)c34)c([C@H](Cc3cc(F)cc(F)c3)NC(=O)Cn3nc(C(F)(F)F)c4c3C(F)(F)[C@@H]3C[C@H]43)n2)C1` [Compound 42, N—((S)-1-(3-(4-chloro-1-methyl-3-(methylsulfonamido)-1H-indazol-7-yl)-6-(3-methyl-3-((1-methylazetidin-3-yl)amino)but-1-yn-1-yl)pyridin-2-yl)-2-(3,5-difluorophenyl)ethyl)-2-((3bS,4aR)-5,5-difluoro-3-(trifluoromethyl)-3b,4,4a,5-tetrahydro-1H-cyclopropa[3,4]cyclopenta[1,2-c]pyrazol-1-yl)acetamide], which CC50 at 5 days [1] is on record?
Its CC50 at 5 days is 2.77 µM.

And the inhibition at 0.2 µM (HIV-IIIb)?
Its inhibition at 0.2 µM is 90%.

What does the source list for `Cn1nc(NS(C)(=O)=O)c2c(Cl)ccc(-c3ccc(C#CC4CCCN4)nc3[C@H](Cc3cc(F)cc(F)c3)NC(=O)Cn3nc(C(F)(F)F)c4c3C(F)(F)[C@@H]3C[C@H]43)c21` (stereo partly drawn) [Compound 43H, N-((1S)-1-(3-(4-chloro-1-methyl-3-(methylsulfonamido)-1H-indazol-7-yl)-6-(pyrrolidin-2-ylethynyl)pyridin-2-yl)-2-(3,5-difluorophenyl)ethyl)-2-((3bS,4aR)-5,5-difluoro-3-(trifluoromethyl)-3b,4,4a,5-tetrahydro-1H-cyclopropa[3,4]cyclopenta[1,2-c]pyrazol-1-yl)acetamide]?
CC50 at 5 days [1]: 4.34 µM; inhibition at 0.2 µM (HIV-IIIb): 99%

Which results are given for `Cn1nc(NS(C)(=O)=O)c2c(Cl)ccc(-c3ccc(C#CC4CCNC4)nc3[C@H](Cc3cc(F)cc(F)c3)NC(=O)Cn3nc(C(F)(F)F)c4c3C(F)(F)[C@@H]3C[C@H]43)c21` (stereo partly drawn) [Compound 44, N-((1S)-1-(3-(4-chloro-1-methyl-3-(methylsulfonamido)-1H-indazol-7-yl)-6-(pyrrolidin-3-ylethynyl)pyridin-2-yl)-2-(3,5-difluorophenyl)ethyl)-2-((3bS,4aR)-5,5-difluoro-3-(trifluoromethyl)-3b,4,4a,5-tetrahydro-1H-cyclopropa[3,4]cyclopenta[1,2-c]pyrazol-1-yl)acetamide]?
CC50 at 5 days [1]: 5.64 µM; inhibition at 0.2 µM (HIV-IIIb): 100%
